Results reported in patent publication US6387905B2, “Compounds useful for inhibition of farnesyl protein transferase” (Schering Corporation, priority 1996, dated 2002).
“And” between values parts separate entries of the source, which are not always exact repeats. Equal entries are not always repeated. Where two headings read alike, the source gives them in different places.

Legend:
[1] = biological target: farnesyl protein transferase (FPT), K-ras (Homo sapiens, UniProt P49354+P49356); test: FPT IC50 (K-ras), inhibition of farnesyl protein transferase, in vitro enzyme assay; format: biochemical
Procedure: (§1) FPT IC50 (inhibition of farnesyl protein transferase, in vitro enzyme assay) and COS Cell IC50 (Cell-Based Assay) were determined following the assay procedures described in WO 95/10516, published Apr. 20, 1995. GGPT IC50 (inhibition of geranylgeranyl protein transferase, in vitro enzyme assay), Cell Mat Assay, and anti-tumor activity (in vivo anti-tumor studies) could be determined by the assay procedures described in WO 95/10516. The disclosure of WO 95/10516 is incorporated herein by reference thereto.

[2] = biological target: farnesyl protein transferase (FPT), H-ras (Homo sapiens, UniProt P49354+P49356); test: FPT IC50 (H-ras), inhibition of farnesyl protein transferase, in vitro enzyme assay; format: biochemical
Procedure: as §1

COS Cell = COS Cell IC50 (Cell-Based Assay)
Procedure: as §1

Human tumor cells = test: Soft Agar Assay (anchorage-independent growth); format: cell-based
Procedure: Anchorage-independent growth is a characteristic of tumorgenic cell lines. Human tumor cells are suspended in growth medium containing 0.3% agarose and an indicated concentration of a farnesyl transferase inhibitor. The solution is overlayed onto growth medium solidified with 0.6% agarose containing the same concentration of farnesyl transferase inhibitor as the top layer. After the top layer is solidified, plates are incubated for 10-16 days at 37° C. under 5% CO2 to allow colony outgrowth. After incubation, the colonies are stained by overlaying the agar with a solution of MTT (3-[4,5-dimethyl-thiazol-2-yl]-2,5-diphenyltetrazolium bromide, Thiazolyl blue) (1 mg/mL in PBS). Colonies can be counted and the IC50's can be determined.

[3] = COS, read-out: Cos Cell IC50, Table 5
[4] = Homo sapiens, read-out: Soft Agar IC50, Table 5
[5] = COS, Table 5, read-out: Cos Cell IC50
[6] = Homo sapiens, Table 5, read-out: Soft Agar IC50

Structure (SMILES)	IC50 ([2]; Table 4, read-out: FPT IC50)	IC50 (COS Cell; [5]) [nM]	IC50 (Human tumor cells; [6]) [nM]	further results
O=C(CC1CCN(C(=O)CN2CCS(=O)(=O)CC2)CC1)N1CCC([C@H]2c3ncc(Br)cc3CCc3cc(Cl)cc(Br)c32)CC1 [Example 6.0-B]	–	–	–	IC50 [1]: 14.5 nM
N[C@@H](Cc1c[nH]cn1)C(=O)N1CCC(CC(=O)N2CCC([C@H]3c4ncc(Br)cc4CCc4cc(Cl)cc(Br)c43)CC2)CC1 [Example 11]	–	–	–	IC50 ([2]; Table 3, H-ras, read-out: FPT IC50 (nM) (H-ras)): 15 nM; IC50 [1]: 49 nM
CC(C)=NOCC(=O)N1CCC(CC(=O)N2CCC([C@H]3c4ncc(Br)cc4CCc4cc(Cl)cc(Br)c43)CC2)CC1 [Example 9.0-B]	–	–	–	IC50 [1]: 41 nM
Cc1nccn1CC(=O)N1CCC(CC(=O)N2CCC([C@H]3c4ncc(Br)cc4CCc4cc(Cl)cc(Br)c43)CC2)CC1 [Example 10.0-B]	–	–	–	IC50 [1]: 15.8 nM
O=C(CC1CCN(C(=O)Cn2cnc3cccnc32)CC1)N1CCC([C@H]2c3ncc(Br)cc3CCc3cc(Cl)cc(Br)c32)CC1 [Example 13.0-B]	–	–	–	IC50 [1]: 19.7 nM
O=C(O)CCC(=O)N1CCC(CC(=O)N2CCC([C@H]3c4ncc(Br)cc4CCc4cc(Cl)cc(Br)c43)CC2)CC1 [Example 78]	1.2 nM	–	–	IC50 (COS Cell; [3]): 75 nM; IC50 (Human tumor cells; [4]): > 500 nM
O=C(O)CC(=O)N1CCC(CC(=O)N2CCC([C@H]3c4ncc(Br)cc4CCc4cc(Cl)cc(Br)c43)CC2)CC1 [Example 14.0-B]	0.9 nM and 1.9 nM	–	–	IC50 (COS Cell; [3]): 250 nM; IC50 (COS Cell; read-out: Cos Cell IC50, Table 5): 200 nM; IC50 (Human tumor cells; [4]): > 500 nM
NC(=O)CC(=O)N1CCC(CC(=O)N2CCC([C@H]3c4ncc(Br)cc4CCc4cc(Cl)cc(Br)c43)CC2)CC1 [Cmpd 50.0-B]	3.3 nM	< 10	95	–
O=C(CC1CCN(C(=O)CC2CCCO2)CC1)N1CCC([C@H]2c3ncc(Br)cc3CCc3cc(Cl)cc(Br)c32)CC1 (stereo partly drawn) [Cmpd 114.4-B]	7.8 nM	10	363	–
O=C(CC1CCN(C(=O)CN2C(=O)CSC2=O)CC1)N1CCC([C@H]2c3ncc(Br)cc3CCc3cc(Cl)cc(Br)c32)CC1 [Cmpd 79.0-B]	4.4 nM	150	> 500	–
O=C(CC1CCN(C(=O)Cn2cnc3ccccc32)CC1)N1CCC([C@H]2c3ncc(Br)cc3CCc3cc(Cl)cc(Br)c32)CC1 [Example 12.0-B]	–	–	–	IC50 [1]: 26.7 nM
CCOC(=O)CC(CC(=O)N1CCC(CC(=O)N2CCC(C3c4ncc(Br)cc4CCc4cc(Cl)cc(Br)c43)CC2)CC1)OC(C)=O (stereo not drawn) [Example 16.0-B]	5.3 nM	16	90	–
O=C(CC1CCN(C(=O)Cn2cnc([N+](=O)[O-])c2)CC1)N1CCC([C@H]2c3ncc(Br)cc3CCc3cc(Cl)cc(Br)c32)CC1 [Cmpd 26.0-B]	3.2 nM	30	> 500	–
O=C(O)NC(=O)C(=O)N1CCC(CC(=O)N2CCC([C@H]3c4ncc(Br)cc4CCc4cc(Cl)cc(Br)c43)CC2)CC1 [Cmpd 59.0-B]	4 nM	50	500	–
O=C(CO/N=C/c1cc[n+]([O-])cc1)N1CCC(CC(=O)N2CCC([C@H]3c4ncc(Br)cc4CCc4cc(Cl)cc(Br)c43)CC2)CC1 [Cmpd 22.0-B]	1.8 nM	35	19.5	–
CC(C)=NOCC(=O)N1CCC(CC(=O)N2CCC([C@H]3c4ncc(Br)cc4CCc4cc(Cl)cc(Br)c43)CC2)CC1 [Cmpd 9.0-B]	5.8 nM	25	> 500	–
Cc1cn(CC(=O)N2CCC(CC(=O)N3CCC([C@H]4c5ncc(Br)cc5CCc5cc(Cl)cc(Br)c54)CC3)CC2)cn1 [Example 11.0-B]	–	–	–	IC50 [1]: 12.6 nM
O=C(CC1CCN(C(=O)Cn2cnc3ccccc32)CC1)N1CCC([C@H]2c3ncc(Br)cc3CCc3cc(Cl)cc(Br)c32)CC1 [Cmpd 12.0-B]	3 nM	20	> 500	–
O=C(O)C(=O)N1CCC(CC(=O)N2CCC([C@H]3c4ncc(Br)cc4CCc4cc(Cl)cc(Br)c43)CC2)CC1 [Cmpd 17.0-B]	1.2 nM	> 1000	> 500	–
O=C(OCc1ccccc1)c1cccn1CC(=O)N1CCC(CC(=O)N2CCC([C@H]3c4ncc(Br)cc4CCc4cc(Cl)cc(Br)c43)CC2)CC1 [Cmpd 55.0-B]	9.2 nM	200	> 500	–
NC(=O)CCCC(=O)N1CCC(CC(=O)N2CCC([C@H]3c4ncc(Br)cc4CCc4cc(Cl)cc(Br)c43)CC2)CC1 [Cmpd 114.0-B]	3.9 nM	35	395	–

Structure (SMILES)	IC50 ([2]; Table 4, read-out: FPT IC50)	IC50 (COS Cell; [5]) [nM]	IC50 (Human tumor cells; [6]) [nM]	further results
CC(C)=NOCCC(=O)N1CCC(CC(=O)N2CCC([C@H]3c4ncc(Br)cc4CCc4cc(Cl)cc(Br)c43)CC2)CC1 [Cmpd 23.0-B]	2.8 nM	< 10	> 500	–
O=C(CC1CCN(C(=O)Cn2cccc2)CC1)N1CCC([C@H]2c3ncc(Br)cc3CCc3cc(Cl)cc(Br)c32)CC1 [Cmpd 34.0-B]	4.2 nM	9	460	–
O=C1NC(=O)C(CC(=O)N2CCC(CC(=O)N3CCC([C@H]4c5ncc(Br)cc5CCc5cc(Cl)cc(Br)c54)CC3)CC2)N1 (stereo partly drawn) [Cmpd 77.0-B]	3.2 nM	14	240	IC50 (Human tumor cells; Table 5, read-out: Soft Agar IC50): 214 nM
NNC(=O)C(=O)N1CCC(CC(=O)N2CCC([C@H]3c4ncc(Br)cc4CCc4cc(Cl)cc(Br)c43)CC2)CC1 [Cmpd 32.0-B]	3.5 nM	28	> 500	–
Cc1nccn1CC(=O)N1CCC(CC(=O)N2CCC([C@H]3c4ncc(Br)cc4CCc4cc(Cl)cc(Br)c43)CC2)CC1 [Cmpd 10.0-B]	2.5 nM	20	> 300	–
COC(=O)Cc1cn(CC(=O)N2CCC(CC(=O)N3CCC([C@H]4c5ncc(Br)cc5CCc5cc(Cl)cc(Br)c54)CC3)CC2)cn1 [Cmpd 56.0-B]	3.3 nM	50	> 500	–
O=C(CC1CCN(C(=O)Cn2cnc3cccnc32)CC1)N1CCC([C@H]2c3ncc(Br)cc3CCc3cc(Cl)cc(Br)c32)CC1 [Cmpd 13.0-B]	4.1 nM	25	> 500	–
NC(=O)CC(O)CC(=O)N1CCC(CC(=O)N2CCC([C@H]3c4ncc(Br)cc4CCc4cc(Cl)cc(Br)c43)CC2)CC1 (stereo partly drawn) [Cmpd 92.0-B]	2.2 nM	15	45	–
O=C(Cc1cccs1)N1CCC(CC(=O)N2CCC([C@H]3c4ncc(Br)cc4CCc4cc(Cl)cc(Br)c43)CC2)CC1 [Cmpd 82.0-B]	7.1 nM	< 10	> 500	–
O=C(CO/N=C/c1ccccc1O)N1CCC(CC(=O)N2CCC([C@H]3c4ncc(Br)cc4CCc4cc(Cl)cc(Br)c43)CC2)CC1 [Cmpd 95.0-B]	8.3 nM	11	> 500	–
O=C(O)CCCCCC(=O)N1CCC(CC(=O)N2CCC([C@H]3c4ncc(Br)cc4CCc4cc(Cl)cc(Br)c43)CC2)CC1 [Example 80]	1.4 nM	–	–	IC50 (COS Cell; [3]): 25 nM; IC50 (Human tumor cells; [4]): 250 nM
O=C(O)CCCCC(=O)N1CCC(CC(=O)N2CCC([C@H]3c4ncc(Br)cc4CCc4cc(Cl)cc(Br)c43)CC2)CC1 [Example 81]	3.6 nM	–	–	IC50 (COS Cell; [3]): 30 nM; IC50 (Human tumor cells; [4]): 480 nM
COC(=O)c1cccn1CC(=O)N1CCC(CC(=O)N2CCC([C@H]3c4ncc(Br)cc4CCc4cc(Cl)cc(Br)c43)CC2)CC1 [Cmpd 35.0-B]	6.4 nM	30	300	IC50 (COS Cell; Table 5, read-out: Cos Cell IC50): 50 nM
COC(=O)C(=O)N1CCC(CC(=O)N2CCC([C@H]3c4ncc(Br)cc4CCc4cc(Cl)cc(Br)c43)CC2)CC1 [Example 104.0-B]	–	40	> 500	IC50 ([2]; H-ras, read-out: FPT IC50 (H-ras)): 4.6 nM
CC(C)(C)OC(=O)NCCCC(=O)N1CCC(CC(=O)N2CCC([C@H]3c4ncc(Br)cc4CCc4cc(Cl)cc(Br)c43)CC2)CC1 [Example 89.0-B]	8.7 nM	550	> 500	–
CONC(=O)C(=O)N1CCC(CC(=O)N2CCC(C3c4ncc(Br)cc4CCc4cc(Cl)cc(Br)c43)CC2)CC1 (stereo not drawn) [Cmpd 49.0-B]	2.1 nM	38	> 500	–
O=C(CC1CCN(C(=O)CN2CCS(=O)(=O)CC2)CC1)N1CCC([C@H]2c3ncc(Br)cc3CCc3cc(Cl)cc(Br)c32)CC1 [Cmpd 6.0-B]	2.7 nM	30	210	–
O=C(CCN1CCCCC1)N1CCC(CC(=O)N2CCC([C@H]3c4ncc(Br)cc4CCc4cc(Cl)cc(Br)c43)CC2)CC1 [Example 7.0-B]	–	–	–	IC50 [1]: 15.4 nM
O=C(O)c1cccn1CC(=O)N1CCC(CC(=O)N2CCC([C@H]3c4ncc(Br)cc4CCc4cc(Cl)cc(Br)c43)CC2)CC1 [Cmpd 52.0-B]	1.3 nM	400	500	–
O=C(CC1CCN(C(=O)C2CC(O)CN2)CC1)N1CCC([C@H]2c3ncc(Br)cc3CCc3cc(Cl)cc(Br)c32)CC1 (stereo partly drawn) [Cmpd 63.0-B]	3.5 nM	55	500	–
O=C(CC1CCN(C(=O)CC2COCCO2)CC1)N1CCC([C@H]2c3ncc(Br)cc3CCc3cc(Cl)cc(Br)c32)CC1 (stereo partly drawn) [Cmpd 114.2-B]	3.9 nM	10	75	–
